Experimental data taken from US20120277161A1, “INHIBITION OF MULTIPLE CELL ACTIVATION PATHWAYS” (INTER-K PTY LIMITED, priority 2009, published 2012).

Assays:
[1] = tested on: cell adhesion mediated ERK activation in HT29 human colon cancer cells; experiment: ERK cell adhesion assay (fibronectin), phospho-ERK1/2 ELISA; type: cell-based
Method: Experimental wells were coated with 100 μL of fibronectin (1-10 μg/mL, Sigma-Aldrich) or 100 μL of 1% BSA (negative control, Sigma-Aldrich). Plates were then incubated at 37° C. for 1 hour before being washed with 100 μL PBS. 100 μL of 1% BSA was then added to each well for 30 minutes to block non-specific binding (37°). HT29 human colon cancer cells were harvested using 0.5% trypsin-EDTA and 50,000 cells were plated into each empty well in 100 μL of serum free media (SFM; DMEM supplemented with 1% (v/v) L-glutamine and 2% (v/v) 1M HEPES solution). 100 μL of SFM with or without PP2 (final concentration 5 μM, specific c-Src inhibitor, Sigma-Aldrich), was then added to each well. Plates were centrifuged at 200 rpm for 5 minutes and then incubated at 37° C. for one hour. Phospho-ERK1/2 levels in the cell groups was evaluated by ELISA (Active Motif assay kit, Australian Biosearch) essentially as described in Example 7.1.
A study was undertaken to evaluate the effect of the PI3K inhibitor Wortmannin (0.25 μM final concentration) on cell adhesion mediated ERK activation in HT29 human colon cancer cells. Phospho-ERK1/2 levels were measured as an indicator of ERK activation substantially as described in Example 7.1. Increasing levels of phospho-ERK1/2 in HT29 cells correlated with increasing levels of fibronectin in the absence of serum stimulation of the HT29 cells.

[2] = tested on: ADDP human ovarian carcinoma cell line; experiment: Cell proliferation (MTT) assay, ADDP cells; type: cell-based
Method: (§1) 6.1 Cell Proliferation (MTT) Assay Single cell suspensions of viable trypsinised cells were seeded into 96-well tissue culture plates at a density of 2×10^3 cells per well in a volume of 100 μl of a suitable culture media supplemented with heat inactivated foetal calf serum (FCS) (e.g., Dulbecco's Modified Eagles Medium (DMEM), with 10% v/v FCS, 1% L-glutamine, 2% (v/v) Hepes, and antibiotics). A set of triplicate wells was prepared for each concentration of the peptide dendrimer being tested. Additional sample wells containing untreated cells or media alone were set up in each treatment plate and processed in parallel as reference controls. A zero-time plate of untreated cells and media-alone wells was simultaneously prepared and an MTT assay carried out on this plate at the time of addition of the kinase inhibitor (i.e., polypeptide or dendrimer) to treatment plates. All plates were cultured for 24 hours before addition of the test dendrimer.
To prepare the MTT solution 100 mg of MTT (3-(4,5-dimethylthiazolyl-2)-2,5-diphenyltetrazolium bromide) (Cat #. M-128, Sigma, St Louis Mo.), is mixed with 20 ml of PBS at pH 7.4. The resulting solution is filter sterilized (0.2 μM syringe filter) and stored at 4° C. protected from light until use. MTT substrate is cleaved in growing cells to yield a water insoluble salt. After solubilisation of the salt crystals, a coloured product is produced the measurement of which allows quantitation of the proliferative activity of the cultured cells.
Appropriate concentrations of the kinase inhibitor were prepared by dilution of freshly prepared sterile 1 mM stock solutions into cell culture media to give a final well volume of 200 μl containing 10% v/v FCS. The zero-plate was processed by addition of MTT at this time. Cell culture was continued for a further 24 or 48 hours before addition of 20 μl of MTT in PBS (5 mg/ml, 0.2 um filter sterilised). The MTT cell proliferation assay measures cell proliferation rate and, in instances where cell viability is compromised, the assay indicates a comparative reduction in cell viability. After a 3 hour incubation in the presence of MTT (5% CO2 in air at 37° C.), plates were centrifuged at 450 g for 5 minutes, supernatant was removed by gentle suction and precipitated tetrazolium salt resuspended into 150 μl DMSO:glycine (0.1M glycine, 0.1M NaCl pH 10.5) (6:1 v/v) solution. Plates were gently vortexed to complete solubilisation of crystalline material and absorbance was read at 550 nm using a microplate reader. Sample data were processed to determine the comparative growth of treated samples relative to untreated controls.

[3] = tested on: A2780 ovarian cancer cell line; experiment: Cell proliferation (MTT) assay, A2780 cells; type: cell-based, human; conditions: drug alone; FIG. 6
Method: as §1, with “A zero-time plate of untreated cells and media-alone wells was simultaneously prepared and an MTT assay carried out on this plate at the time of addition of the kinase inhibitor (i.e., polypeptide or dendrimer) to treatment plates. All plates were cultured for 24 hours before addition of the test dendrimer.” left out
To prepare the MTT solution 100 mg of MTT (3-(4,5-dimethylthiazolyl-2)-2,5-diphenyltetrazolium bromide) (Cat #. M-128, Sigma, St Louis Mo.), is mixed with 20 ml of PBS at pH 7.4. […] After solubilisation of the salt crystals, a coloured product is produced the measurement of which allows quantitation of the proliferative activity of the cultured cells.
Appropriate concentrations of the kinase inhibitor were prepared by dilution of freshly prepared sterile 1 mM stock solutions into cell culture media to give a final well volume of 200 μl containing 10% v/v FCS. […] Plates were gently vortexed to complete solubilisation of crystalline material and absorbance was read at 550 nm using a microplate reader. […]

c-SRC (h) = c-SRC (h) (Homo sapiens, UniProt P12931); experiment: c-Src kinase activity assay (cell-free, 33P-ATP); type: biochemical; conditions: peptide 50 μM, relative to control
Method: In a final reaction volume of 25 μL, c-SRC (h) (5-10 mU) is incubated with 8 mM MOPS pH 7.0, 0.2 mM EDTA, 250 μM KVEKIGEGTYGVVYK (SEQ ID No. 19) (Cdc2 peptide), 10 mM MgAcetate and [γ-33P-ATP] (specific activity approx. 500 cpm/pmol, concentration as required). The reaction is initiated by the addition of the MgATP mix. After incubation for 40 minutes at room temperature, the reaction is stopped by the addition of 5 μL of a 3% phosphoric acid solution. 10 μL of the reaction is then spotted onto a P30 filtermat and washed three times for 5 minutes in 75 mM phosphoric acid and once in methanol prior to drying and scintillation counting.

MEK1 (h) = MEK1 (h) (Homo sapiens, UniProt Q02750); experiment: MEK1 kinase activity assay; type: biochemical; conditions: 50 μM
Method: The reaction is initiated by the addition of the MgATP. After incubation for 40 minutes at room temperature, 5 μL of this incubation mix is used to initiate an ERK2 (m) assay.

human Yes = human Yes (Homo sapiens, UniProt P07947); experiment: Yes kinase activity assay; type: biochemical; conditions: peptide 50 μM
Chain of human Yes (P07947 whole entry): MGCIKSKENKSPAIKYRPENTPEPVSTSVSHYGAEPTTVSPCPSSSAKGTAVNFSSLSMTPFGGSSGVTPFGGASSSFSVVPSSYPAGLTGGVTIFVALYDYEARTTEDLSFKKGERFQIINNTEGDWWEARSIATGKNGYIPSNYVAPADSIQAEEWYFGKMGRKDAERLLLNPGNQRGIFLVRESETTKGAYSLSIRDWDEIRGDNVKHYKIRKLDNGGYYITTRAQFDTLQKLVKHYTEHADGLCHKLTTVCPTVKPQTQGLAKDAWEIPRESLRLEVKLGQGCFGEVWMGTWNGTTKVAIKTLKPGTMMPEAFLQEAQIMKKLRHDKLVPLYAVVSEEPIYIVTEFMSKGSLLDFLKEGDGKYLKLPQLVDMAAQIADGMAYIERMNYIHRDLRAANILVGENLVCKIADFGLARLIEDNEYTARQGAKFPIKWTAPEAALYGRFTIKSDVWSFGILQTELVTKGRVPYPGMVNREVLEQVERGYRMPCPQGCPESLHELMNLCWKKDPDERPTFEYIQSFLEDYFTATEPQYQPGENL
Method: In a final reaction volume of 25 μl, human Yes is incubated with the RSKAKNPLYR peptide (SEQ ID No: 6) in 8 mM MOPS buffer pH 7.0, 0.2 mM EDTA, 0.1 mg/ml poly(Glu,Tyr) 4:1, 10 mM Mg acetate and [γ-33P-ATP] (specific activity approx. 500 cpm/pmol). The reaction is initiated by the addition of the MgATP mix, incubated for 40 minutes at room temperature prior to being stopped and kinase activity assessed by scintillation counting again as per the protocol described for c-Src in Example 1.1.

human Lyn = human Lyn (Homo sapiens, UniProt P07948); experiment: Lyn kinase activity assay; type: biochemical; conditions: peptide 50 μM
Chain of human Lyn (P07948 whole entry): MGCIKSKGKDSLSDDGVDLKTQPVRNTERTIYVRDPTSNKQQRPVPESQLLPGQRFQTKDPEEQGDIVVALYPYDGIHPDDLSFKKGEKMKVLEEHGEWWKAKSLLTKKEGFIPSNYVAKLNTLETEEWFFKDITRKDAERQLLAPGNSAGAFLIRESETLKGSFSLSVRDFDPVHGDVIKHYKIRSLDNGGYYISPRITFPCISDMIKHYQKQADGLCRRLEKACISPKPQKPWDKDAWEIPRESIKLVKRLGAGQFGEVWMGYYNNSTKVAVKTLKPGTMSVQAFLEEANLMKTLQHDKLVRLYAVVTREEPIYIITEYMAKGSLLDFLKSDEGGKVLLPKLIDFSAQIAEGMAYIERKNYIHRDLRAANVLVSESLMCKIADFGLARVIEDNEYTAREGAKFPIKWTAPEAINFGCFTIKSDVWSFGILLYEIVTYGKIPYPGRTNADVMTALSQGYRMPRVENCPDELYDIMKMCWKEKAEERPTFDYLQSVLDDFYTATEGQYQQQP
Method: In a final reaction volume of 25 μl, human Lyn is incubated with the RSKAKNPLYR peptide (SEQ ID No: 6) in 50 mM Tris buffer pH 7.5, 0.1 mM EGTA, 0.1 mM Na3VO4, 1% mercaptoethanol, 0.1 mg/ml poly(Glu,Tyr) 4:1, 10 mM Mg acetate and [γ-33P-ATP] (specific activity approx. 500 cpm/pmol). The reaction was initiated by the addition of the MgATP mix, incubated for 40 minutes at room temperature prior to being stopped and kinase activity assessed by scintillation counting as per the protocol described for c-Src described in Example 1.1.

Q: Which “phospho-ERK levels, HT29 cells on fibronectin” value ([1]; 5 μM, no serum stimulation, results not shown) does the source give for `CC(C)(C)n1nc(-c2ccc(Cl)cc2)c2c(N)ncnc21` [PP2] here?
A: The value was “markedly reduced”.

Q: Which “reduction of cell adhesion mediated ERK activation” value ([1]; 0.25 μM, HT29 cells) does the source give for `COC[C@H]1OC(=O)c2coc3c2[C@@]1(C)C1=C(C3=O)[C@@H]2CCC(=O)[C@@]2(C)C[C@H]1OC(C)=O` [Wortmannin] here?
A: The value was “about 55%”.

Q: For `N.N.[Cl][Pt][Cl]` [cisplatin, cis-diamminedichloroplatinum (II), reference compound], which “inhibition of growth of ADDP cell line” value ([2]; drug alone, FIG. 6) is on record?
A: Its value is “substantially less inhibition of growth”.

Q: What about the “inhibition of growth of A2780 cell line” value [3] of the same compound?
A: The value was “highly susceptible”.

Q: For RSKAKNPLYR [Peptide 1], which “effect in combination with cisplatin, ADDP cells” value ([2]; 20 μM peptide, 72 hour culture, data not shown) is on record?
A: Its value is “synergistic effect”.

Q: What about the “% Inhibition of control, c-Src tyrosine kinase activity” value (c-SRC (h)) of the same compound?
A: Its value is “approx. 57%”.

Q: And the “inhibition of MEK1” value (MEK1 (h))?
A: Its value is “negligible inhibition”.

Q: What about the “inhibition of Yes activity” value (human Yes) of the same compound?
A: The value was “only relatively low level inhibition”.

Q: What about the “inhibition of Lyn activity” value (human Lyn) of the same compound?
A: Its value is “only relatively low level inhibition”.
